Measured values as given in paper PMC4744546 (Pharmaceutical research, 2015).
Where two headings read alike, the source gives them in different places.

Tests used:
[1] = Pharmacokinetic study of oral resveratrol with or without curcumin in Bcrp1; assay type: in vivo, Bcrp1 (−/−) mice (FVB background); details: for Cmax / Tmax / half-life: FVB, mouse, whole blood, po, 20 mg/kg, oral resveratrol 20mg/kg; for Cmax: blood
[2] = assay type: in vivo, FVB wild-type mice
BCRP [3] = details: oral sulfasalazine, curcumin pretreatment vs none, ref [37]; cited from earlier work
colon cancer cell lines = details: ref [18]; cited from earlier work
human MRP2 = human MRP2 (Homo sapiens, UniProt Q92887); test: Effect of curcumin on MRP2-mediated efflux; assay type: cell-based; details: MRP2-overexpressing MDCK II-UGT1A1 cells
Sequence of human MRP2 (Q92887 whole entry): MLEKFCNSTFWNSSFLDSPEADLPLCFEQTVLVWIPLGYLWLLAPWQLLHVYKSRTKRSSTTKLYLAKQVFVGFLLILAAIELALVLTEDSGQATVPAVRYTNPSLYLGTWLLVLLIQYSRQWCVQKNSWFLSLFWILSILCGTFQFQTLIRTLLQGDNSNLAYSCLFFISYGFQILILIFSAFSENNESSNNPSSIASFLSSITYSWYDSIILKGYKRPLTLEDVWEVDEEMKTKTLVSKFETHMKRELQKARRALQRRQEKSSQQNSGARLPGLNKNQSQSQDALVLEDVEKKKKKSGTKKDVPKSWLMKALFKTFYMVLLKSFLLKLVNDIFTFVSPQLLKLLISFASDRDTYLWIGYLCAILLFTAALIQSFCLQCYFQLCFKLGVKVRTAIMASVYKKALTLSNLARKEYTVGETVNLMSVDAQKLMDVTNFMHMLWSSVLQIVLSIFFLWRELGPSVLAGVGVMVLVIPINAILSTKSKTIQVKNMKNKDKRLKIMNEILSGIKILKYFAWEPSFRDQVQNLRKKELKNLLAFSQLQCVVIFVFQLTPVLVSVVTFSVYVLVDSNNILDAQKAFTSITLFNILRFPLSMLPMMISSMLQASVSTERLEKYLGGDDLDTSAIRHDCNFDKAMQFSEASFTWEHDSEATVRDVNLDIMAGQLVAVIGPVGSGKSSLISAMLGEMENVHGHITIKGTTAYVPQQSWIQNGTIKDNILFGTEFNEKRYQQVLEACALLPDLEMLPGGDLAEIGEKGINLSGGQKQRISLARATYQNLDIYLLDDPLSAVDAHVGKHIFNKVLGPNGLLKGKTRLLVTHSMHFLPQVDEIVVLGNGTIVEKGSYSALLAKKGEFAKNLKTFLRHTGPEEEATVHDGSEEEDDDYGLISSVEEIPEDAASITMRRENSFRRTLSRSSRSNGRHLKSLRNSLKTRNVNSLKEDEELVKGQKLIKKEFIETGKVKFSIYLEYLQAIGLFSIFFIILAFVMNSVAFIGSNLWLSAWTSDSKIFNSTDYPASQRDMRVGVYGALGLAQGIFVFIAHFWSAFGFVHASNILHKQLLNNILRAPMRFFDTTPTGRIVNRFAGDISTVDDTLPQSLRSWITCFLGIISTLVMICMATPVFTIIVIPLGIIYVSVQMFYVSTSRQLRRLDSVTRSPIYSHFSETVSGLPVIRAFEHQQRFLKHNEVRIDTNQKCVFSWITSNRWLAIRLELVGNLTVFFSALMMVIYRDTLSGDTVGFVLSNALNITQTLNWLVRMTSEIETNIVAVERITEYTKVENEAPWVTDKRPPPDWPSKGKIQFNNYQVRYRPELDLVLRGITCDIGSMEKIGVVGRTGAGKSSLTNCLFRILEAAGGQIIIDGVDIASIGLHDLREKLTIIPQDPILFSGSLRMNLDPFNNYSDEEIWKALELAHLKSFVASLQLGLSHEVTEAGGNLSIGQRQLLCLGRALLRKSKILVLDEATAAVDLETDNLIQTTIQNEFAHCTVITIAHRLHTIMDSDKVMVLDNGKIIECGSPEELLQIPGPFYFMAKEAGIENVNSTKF

[4] = tested on: human MRP2-overexpressing MDCK II-UGT1A1 cells; test: Effect of curcumin on fmet of resveratrol conjugates in MDCK II cells; assay type: cell-based; details: 4 h
BCRP [5] = molecular target: T1, BCRP (Homo sapiens, UniProt Q9UNQ0); test: Effect of curcumin on BCRP-mediated efflux; assay type: cell-based; details: UGT1A9-overexpressing HeLa cells
T1 sequence (Q9UNQ0 1-655): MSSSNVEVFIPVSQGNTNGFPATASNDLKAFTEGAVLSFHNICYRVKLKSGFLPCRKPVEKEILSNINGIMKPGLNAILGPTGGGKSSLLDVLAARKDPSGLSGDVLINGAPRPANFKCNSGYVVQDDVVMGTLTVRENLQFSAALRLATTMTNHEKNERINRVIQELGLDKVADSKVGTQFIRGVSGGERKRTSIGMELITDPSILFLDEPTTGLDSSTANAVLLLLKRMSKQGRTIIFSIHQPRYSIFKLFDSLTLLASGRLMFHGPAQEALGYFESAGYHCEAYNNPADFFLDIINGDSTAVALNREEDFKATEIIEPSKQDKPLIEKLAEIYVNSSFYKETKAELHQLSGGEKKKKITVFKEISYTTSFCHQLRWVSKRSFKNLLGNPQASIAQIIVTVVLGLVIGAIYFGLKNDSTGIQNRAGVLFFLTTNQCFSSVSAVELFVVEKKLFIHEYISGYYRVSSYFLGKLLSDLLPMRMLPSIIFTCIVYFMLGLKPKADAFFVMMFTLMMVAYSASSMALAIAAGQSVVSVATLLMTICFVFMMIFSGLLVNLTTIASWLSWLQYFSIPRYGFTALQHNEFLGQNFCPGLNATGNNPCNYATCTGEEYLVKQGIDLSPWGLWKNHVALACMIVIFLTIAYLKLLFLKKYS

[6] = humans; ref [16]; cited from earlier work
[7] = Characterization of resveratrol metabolites in pooled human liver S9 fraction; assay type: in vitro ADME
[8] = FVB, mouse, whole blood, po, 20 mg/kg
[9] = WT mice with curcumin vs without, resveratrol 20mg/kg oral
[10] = curcumin 50nM, resveratrol […], 4 h, p<0.01
[11] = curcumin 50nM, resveratrol […], 4 h, p<0.05

Oc1ccc(/C=C/c2cc(O)cc(O)c2)cc1 [Resveratrol, trans-3,5,4′-trihydroxystilbene]
Cmax ([1]; Bcrp1 (−/−) with curcumin): 390 ± 170 nM
Cmax ([1]; Bcrp1 (−/−) without curcumin): 790 ± 440 nM
Tmax ([1]; Bcrp1 (−/−) without curcumin): 0.31 ± 0.12 h
change in AUC with curcumin ([1]; curcumin-treated vs curcumin-untreated Bcrp1 (−/−) mice): decreased moderately
Cmax [2, 8]: 600 ± 260 nM
increase of AUC with curcumin [2, 9]: 2 fold
increase of maximum blood concentration (Cmax) with curcumin [2, 9]: ~100%

O=C(O)c1cc(/N=N/c2ccc(S(=O)(=O)Nc3ccccn3)cc2)ccc1O [SASP, sulfasalazine]
plasma level in mice pretreated with curcumin (BCRP [3]): two folds higher

O=C(O)[C@H]1O[C@@H](Oc2cc(O)cc(/C=C/c3ccc(O)cc3)c2)[C@H](O)[C@@H](O)[C@@H]1O [R-3-G, resveratrol-3-O-glucuronide]
IC50 of cell growth inhibition compared to parent compound (colon cancer cell lines): comparable

COc1cc(/C=C/C(=O)CC(=O)/C=C/c2ccc(O)c(OC)c2)ccc1O [curcumin, diferuoyl methane]
reduction of CL of RES-3-O-G (human MRP2; curcumin 50nM, resveratrol […], 4 h, p<0.001): 46%
reduction of CL of RES-4′-O-G (human MRP2; [10]): 50%
reduction of CL of RES-3-O-S (human MRP2; [11]): 53%
reduction of CL of RES-4′-O-S (human MRP2; [11]): 54%
inhibitory effect on CL at higher concentration (human MRP2; curcumin 100nM vs 50nM): no greater concentration-dependent inhibitory effect
decrease in fmet of RES-4′-O-G ([4]; curcumin 200nM, p<0.05): ~20%
reduction in fmet of RES-3-O-G ([4]; curcumin 200nM, p>0.05): ~12%
decrease in fmet of RES-4′-O-G ([4]; curcumin 500nM, p<0.01): approximately 24%
reduction in fmet of RES-3-O-G ([4]; curcumin 500nM, p<0.05): ~14%
decrease in fmet of RES-4′-O-G ([4]; curcumin 1000nM, p<0.01): about 33%
reduction in fmet of RES-3-O-G ([4]; curcumin 1000nM, p<0.05): approximately 24%
change in fmet values for all metabolites ([4]; lower concentrations of curcumin (100nM, 50nM)): no significant change
decrease of CL of RES-3-O-G (BCRP [5]; [10]): 28%
decrease of CL of RES-3-O-S (BCRP [5]; [11]): 35%
inhibitory effect on CL at higher concentration (BCRP [5]; curcumin 100nM vs 50nM): no greater extent of inhibitory effect
inhibitory effect on CL of RES-4′-G (BCRP [5]; curcumin 100nM, 50nM, resveratrol […], 4 h): did not show any significant inhibitory effect

O=C(O)[C@H]1O[C@@H](Oc2ccc(/C=C/c3cc(O)cc(O)c3)cc2)[C@H](O)[C@@H](O)[C@@H]1O [RES-4′-O-G, resveratrol-4′-O-glucuronide]
peak plasma levels relative to that of resveratrol [6]: 3- to 8 fold
IC50 of cell growth inhibition compared to parent compound (colon cancer cell lines): comparable
amount of metabolite generated relative to the 3-O conjugate [7]: about one fifth

O=S(=O)(O)Oc1cc(O)cc(C=Cc2ccc(O)cc2)c1 [R-3-S, resveratrol-3-O-sulfate]
peak plasma levels relative to that of resveratrol [6]: 3- to 8 fold
Cmax ([1]; Bcrp1 (−/−) with curcumin): 1800 ± 170 nM
Cmax ([1]; Bcrp1 (−/−) without curcumin): 2400 ± 980 nM
Tmax ([1]; Bcrp1 (−/−) with curcumin): 0.25 h
Tmax ([1]; Bcrp1 (−/−) without curcumin): 0.25 h
half-life ([1]; t1/2, Bcrp1 (−/−) with curcumin): 5.82 ± 2.55 h
half-life ([1]; t1/2, Bcrp1 (−/−) without curcumin): 4.41 ± 0.44 h
Cmax [2, 8]: 1320 ± 710 nM
Tmax ([2]; FVB, mouse, whole blood, po, 20 mg/kg, Tmax, WT with curcumin, oral resveratrol 20mg/kg): 0.31 ± 0.12 h
half-life ([2]; FVB, mouse, whole blood, po, 20 mg/kg, t1/2, WT control, oral resveratrol 20mg/kg without curcumin): 3.77 ± 1.74 h
half-life ([2]; FVB, mouse, whole blood, po, 20 mg/kg, t1/2, WT with curcumin, oral resveratrol 20mg/kg): 9.32 ± 5.64 h
